Data taken from ChEMBL document CHEMBL5137131, “Mechanisms of Biochanin A Alleviating PM2.5 Organic Extracts-Induced EMT of A549 Cells through the PI3K/Akt Pathway” (J Nat Prod, 2022).
Calls of active or inactive are those of the source. The rule behind the calls is not given here.

Legend:
[1] = system: A549; test: Cytotoxicity against human A549 cells assessed as reduction in cell viability at 1.5625 to 25 uM incubated for 48 hrs by CCK-8 assay; type: toxicity, cell-based; settings: a549, 48 h, dose 1.5625-25 µM
[2] = system: A549; test: Cytotoxicity against human A549 cells assessed as reduction in cell viability at 200 uM incubated for 48 hrs by CCK-8 assay relative to control; type: toxicity, cell-based; settings: a549, 48 h
[3] = system: A549; test: Protection against PM2.5 induced human A549 cells injury assessed as reduction in PM2.5 induced cell proliferation inhibition at 10 to 30 uM measured at 24 hrs by CCK-8 analysis; type: functional, cell-based; settings: dose 10-30 µM
[4] = system: A549; test: Protection against PM2.5 induced human A549 cells morphological change assessed as reduction in number of mesenchymal morphogenetic cells at 10 to 30 uM measured after 48 hrs by microscopic analysis; type: functional, cell-based; settings: dose 10-30 µM
[5] = system: A549; test: Inhibition of cell invasion in PM2.5 induced human A549 cells assessed as number of cell perforation at 20 uM measured after 24 hrs by Giemsa staining based transwell assay (reference value: 93 +/- 4.04%); type: functional; set-up: scale not given: the % may be the effect or the level left
[6] = system: A549; test: Inhibition of cell invasion in PM2.5 induced human A549 cells assessed as number of cell perforation at 10 uM measured after 24 hrs by Giemsa staining based transwell assay (reference value: 93 +/- 4.04%); type: functional; set-up: scale not given: the % may be the effect or the level left
[7] = system: A549; test: Inhibition of cell migration in PM2.5 induced human A549 at 30 uM incubated for 24 hrs by wound healing assay relative to control; type: functional
[8] = system: A549; test: Inhibition of cell migration in PM2.5 induced human A549 assessed as scratch migration length at 10 uM incubated for 0 hr by wound healing assay (reference value: 2.120 +/- 0.132 micrometer); type: functional
[9] = system: A549; test: Inhibition of cell migration in PM2.5 induced human A549 assessed as scratch migration length at 20 uM incubated for 0 hr by wound healing assay (reference value: 2.120 +/- 0.132 micrometer); type: functional
[10] = system: A549; test: Inhibition of cell migration in PM2.5 induced human A549 assessed as scratch migration length at 30 uM incubated for 0 hr by wound healing assay (reference value: 2.120 +/- 0.132 micrometer); type: functional
[11] = system: A549; test: Inhibition of cell migration in PM2.5 induced human A549 assessed as scratch migration length at 10 uM incubated for 24 hr by wound healing assay (reference value: 1.757 +/- 0.094 micrometer); type: functional
[12] = system: A549; test: Inhibition of cell migration in PM2.5 induced human A549 assessed as scratch migration length at 20 uM incubated for 24 hr by wound healing assay (reference value: 1.757 +/- 0.094 micrometer); type: functional
[13] = system: A549; test: Inhibition of cell migration in PM2.5 induced human A549 assessed as scratch migration length at 30 uM incubated for 24 hr by wound healing assay (reference value: 1.757 +/- 0.094 micrometer); type: functional
[14] = system: A549; test: Inhibition of cell migration in PM2.5 induced human A549 assessed as relative migration length at 10 uM incubated for 24 hr by wound healing assay (reference value: 0.363 micrometer); type: functional
[15] = system: A549; test: Inhibition of cell migration in PM2.5 induced human A549 assessed as relative migration length at 20 uM incubated for 24 hr by wound healing assay (reference value: 0.363 micrometer); type: functional
[16] = system: A549; test: Inhibition of cell migration in PM2.5 induced human A549 assessed as relative migration length at 30 uM incubated for 24 hr by wound healing assay (reference value: 0.363 micrometer); type: functional
[17] = system: A549; test: Inhibition of cell migration in PM2.5 induced human A549 assessed as relative migration rate at 10 uM incubated for 24 hr by wound healing assay (reference value: 129%); type: functional; set-up: scale not given: the % may be the effect or the level left
[18] = system: A549; test: Inhibition of cell migration in PM2.5 induced human A549 assessed as relative migration rate at 20 uM incubated for 24 hr by wound healing assay (reference value: 129%); type: functional; set-up: scale not given: the % may be the effect or the level left
[19] = system: A549; test: Inhibition of cell migration in PM2.5 induced human A549 assessed as relative migration rate at 30 uM incubated for 24 hr by wound healing assay (reference value: 129%); type: functional; set-up: scale not given: the % may be the effect or the level left
[20] = system: A549; test: Inhibition of cell invasion in PM2.5 induced human A549 cells assessed as number of cell perforation at 30 uM measured after 24 hrs by Giemsa staining based transwell assay (reference value: 93 +/- 4.04%); type: functional; set-up: scale not given: the % may be the effect or the level left
[21] = system: A549; test: Inhibition of cell invasion in PM2.5 induced human A549 cells assessed as reduction in cell invasiveness at 20 uM measured after 24 hrs by Giemsa staining based transwell assay relative to control; type: functional; set-up: scale not given: the % may be the effect or the level left
[22] = system: A549; test: Inhibition of cell invasion in PM2.5 induced human A549 cells assessed as reduction in cell invasiveness at 30 uM measured after 24 hrs by Giemsa staining based transwell assay relative to control; type: functional; set-up: scale not given: the % may be the effect or the level left
[23] = system: A549; test: Downregulation of PM2.5 induced CXCL12 expression in human A549 cells at 10 uM by ELISA relative to control; type: functional
[24] = system: A549; test: Downregulation of PM2.5 induced CXCL12 expression in human A549 cells at 20 uM by ELISA relative to control; type: functional
[25] = system: A549; test: Inhibition of PM2.5 induced TGF-beta1 secretion in human A549 cells at 10 uM by ELISA relative to control; type: functional
[26] = system: A549; test: Inhibition of PM2.5 induced TGF-beta1 secretion in human A549 cells at 20 uM by ELISA relative to control; type: functional
[27] = system: A549; test: Inhibition of PM2.5 induced TGF-beta1 secretion in human A549 cells at 30 uM by ELISA relative to control; type: functional
[28] = system: A549; test: Upregulation of PM2.5 induced E-cadherin mRNA expression in human A549 cells at 10 uM by qRT-PCR analysis; type: functional, cell-based
[29] = system: A549; test: Upregulation of PM2.5 induced mRNA expression in human A549 cells at 20 uM by qRT-PCR analysis; type: functional, cell-based
[30] = system: A549; test: Reversal of PM2.5 induced EMT in human A549 cells at 10 uM by ELISA; type: functional, cell-based
[31] = system: A549; test: Downregulation of PM2.5 induced N-cadherin mRNA level in human A549 cells at 10 uM by qRT-PCR analysis relative to control; type: functional
[32] = system: A549; test: Downregulation of PM2.5 induced N-cadherin mRNA level in human A549 cells at 20 uM by qRT-PCR analysis relative to control; type: functional
[33] = system: A549; test: Downregulation of PM2.5 induced vimentin mRNA expression in human A549 cells at 10 uM by qRT-PCR analysis relative to control; type: functional
[34] = system: A549; test: Downregulation of PM2.5 induced vimentin mRNA expression in human A549 cells at 20 uM by qRT-PCR analysis relative to control; type: functional
[35] = system: A549; test: Downregulation of PM2.5 induced vimentin mRNA expression in human A549 cells at 30 uM by qRT-PCR analysis relative to control; type: functional
[36] = system: A549; test: Downregulation of PM2.5 induced fibronectin mRNA level in human A549 cells at 10 uM by qRT-PCR analysis; type: functional, cell-based
[37] = system: A549; test: Downregulation of PM2.5 induced fibronectin mRNA level in human A549 cells at 20 uM by qRT-PCR analysis; type: functional, cell-based
[38] = system: A549; test: Downregulation of PM2.5 induced fibronectin mRNA level in human A549 cells at 30 uM by qRT-PCR analysis; type: functional, cell-based
[39] = system: A549; test: Upregulation of PM2.5 induced E-cadherin expression in human A549 cells at 30 uM by Western blot analysis; type: functional, cell-based
[40] = system: A549; test: Downregulation of PM2.5 induced vimentin expression in human A549 cells at 10 to 30 uM by Western blot analysis relative to control; type: functional; settings: dose 10-30 µM
[41] = system: A549; test: Downregulation of PM2.5 induced MMP-2 activation in human A549 cells at 10 uM by ELISA; type: functional, cell-based
[42] = system: A549; test: Downregulation of PM2.5 induced MMP-9 activation in human A549 cells at 10 uM by ELISA; type: functional, cell-based
[43] = system: A549; test: Inhibition of PM2.5 induced PI3K upregulation in human A549 cells at 20 uM by Western blot analysis relative to control; type: functional
[44] = system: A549; test: Inhibition of PM2.5 induced PI3K upregulation in human A549 cells at 30 uM by Western blot analysis relative to control; type: functional
[45] = molecular target: T1, Serine/threonine-protein kinase AKT (Homo sapiens) (UniProt P31751+Q9Y243+P31749); test: Inhibition of PM2.5 induced Akt phosphorylation upregulation in human A549 cells at 10 uM by Western blot analysis relative to control; type: cell-based
T1 sequence (P31749 whole entry, looked up): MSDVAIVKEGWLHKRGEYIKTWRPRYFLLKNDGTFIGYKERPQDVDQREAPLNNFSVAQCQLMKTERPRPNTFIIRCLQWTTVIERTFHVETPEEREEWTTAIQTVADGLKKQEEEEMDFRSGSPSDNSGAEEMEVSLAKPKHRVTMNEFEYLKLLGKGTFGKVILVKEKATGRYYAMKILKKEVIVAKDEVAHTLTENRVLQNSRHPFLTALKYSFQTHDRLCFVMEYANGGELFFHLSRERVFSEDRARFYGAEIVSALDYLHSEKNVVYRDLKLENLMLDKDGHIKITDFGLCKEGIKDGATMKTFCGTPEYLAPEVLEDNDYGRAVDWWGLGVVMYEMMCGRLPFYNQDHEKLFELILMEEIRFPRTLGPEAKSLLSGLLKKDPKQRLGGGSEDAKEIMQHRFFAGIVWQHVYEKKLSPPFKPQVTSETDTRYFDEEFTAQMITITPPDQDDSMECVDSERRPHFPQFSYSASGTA
T1 sequence (P31751 whole entry, looked up): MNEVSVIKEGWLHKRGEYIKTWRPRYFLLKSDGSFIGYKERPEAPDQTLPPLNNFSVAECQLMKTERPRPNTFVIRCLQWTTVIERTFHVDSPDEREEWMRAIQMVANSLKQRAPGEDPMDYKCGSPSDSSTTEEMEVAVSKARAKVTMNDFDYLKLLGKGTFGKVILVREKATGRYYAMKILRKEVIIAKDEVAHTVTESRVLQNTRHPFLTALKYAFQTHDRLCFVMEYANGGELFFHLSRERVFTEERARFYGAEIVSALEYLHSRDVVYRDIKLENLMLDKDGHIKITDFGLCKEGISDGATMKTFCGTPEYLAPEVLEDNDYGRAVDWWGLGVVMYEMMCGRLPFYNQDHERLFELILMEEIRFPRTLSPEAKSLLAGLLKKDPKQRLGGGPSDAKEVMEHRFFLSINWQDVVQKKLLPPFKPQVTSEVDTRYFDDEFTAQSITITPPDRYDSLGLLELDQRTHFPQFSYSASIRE
T1 sequence (Q9Y243 whole entry, looked up): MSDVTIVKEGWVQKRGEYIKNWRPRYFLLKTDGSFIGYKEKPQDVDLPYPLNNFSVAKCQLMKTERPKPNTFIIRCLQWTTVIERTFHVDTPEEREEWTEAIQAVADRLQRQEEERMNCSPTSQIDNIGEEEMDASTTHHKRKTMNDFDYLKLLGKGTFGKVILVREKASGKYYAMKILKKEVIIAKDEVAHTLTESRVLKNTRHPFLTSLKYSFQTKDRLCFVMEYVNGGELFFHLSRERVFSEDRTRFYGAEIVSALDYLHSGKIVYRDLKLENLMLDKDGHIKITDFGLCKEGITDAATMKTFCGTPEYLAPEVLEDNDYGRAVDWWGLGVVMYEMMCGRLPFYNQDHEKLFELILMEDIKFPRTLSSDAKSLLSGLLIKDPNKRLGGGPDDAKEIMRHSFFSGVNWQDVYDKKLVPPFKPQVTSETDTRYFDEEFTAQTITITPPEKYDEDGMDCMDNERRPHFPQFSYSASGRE

[46] = molecular target: T1, Serine/threonine-protein kinase AKT (Homo sapiens); test: Inhibition of PM2.5 induced Akt phosphorylation upregulation in human A549 cells at 20 uM by Western blot analysis relative to control; type: cell-based
[47] = molecular target: T1, Serine/threonine-protein kinase AKT (Homo sapiens); test: Inhibition of PM2.5 induced Akt phosphorylation upregulation in human A549 cells at 30 uM by Western blot analysis relative to control; type: cell-based
[48] = system: A549; test: Inhibition of PM2.5 induced PI3K expression in human A549 cells at 10 to 30 uM by qRT-PCR analysis; type: functional, cell-based; settings: dose 10-30 µM
[49] = system: A549; test: Inhibition of PM2.5 induced Akt phosphorylation in human A549 cells at 10 to 30 uM […]; type: functional, cell-based; settings: dose 10-30 µM
[50] = system: A549; test: Inhibition of PM2.5 induced PI3K/Akt activation assessed as inhibition of Snail expression in human A549 cells at 10 to 20 uM; type: cell-based; settings: dose 10-20 µM
[51] = system: A549; test: Inhibition of PM2.5 induced PI3K/Akt activation assessed as inhibition of Slug expression in human A549 cells at 10 to 20 uM; type: cell-based; settings: dose 10-20 µM
[52] = system: A549; test: Inhibition of PM2.5 induced PI3K/Akt activation assessed as inhibition of Twist expression in human A549 cells at 10 to 20 uM; type: cell-based; settings: dose 10-20 µM

For `COc1ccc(-c2coc3cc(O)cc(O)c3c2=O)cc1` [BIOCHANIN], the Activity [1] was “Non-Toxic”, the Activity [2] was 19% and the Activity [3] was “Active”. The Activity [4] was “Active”, the Activity [5] was 61.3% and the Activity [6] was 92%. For the same compound, the inhibition at 30 µM [7] was 22%, the Activity [8] was 1.973 um and the Activity [9] was 1.932 um. The Activity [10] was 1.854 um, the Activity [11] was 1.568 um and the Activity [12] was 1.451 um. The Activity [13] was 1.552 um, the Activity [14] was 0.405 um and the Activity [15] was 0.481 um. For the same compound, the Activity [16] was 0.302 um, the Activity [17] was 144% and the Activity [18] was 171%. The Activity [19] was 107%, the Activity [20] was 52% and the Activity [21] was 34.09%. It also gave an Activity [22] of 44.1%, an Activity [23] of 17% and an Activity [24] of 20%. For the same compound, the inhibition at 10 µM [25] was 16.2%, the inhibition at 20 µM [26] was 13.1% and the inhibition at 30 µM [27] was 24.8%. The Activity [28] was “Active”, the Activity [29] was “Active” and the Activity [30] was “Active”. The Activity [31] was 67%, the Activity [32] was 79% and the Activity [33] was 76%. The Activity [34] was 48%, the Activity [35] was 78% and the Activity [36] was “Active”. The Activity [37] was “Active”, the Activity [38] was “Active” and the Activity [39] was “Active”. For the same compound, the Activity [40] was 45%, the Activity [41] was “Active” and the Activity [42] was “Active”. For the same compound, the inhibition at 20 µM [43] was 50%, the inhibition at 30 µM [44] was 63.3% and the inhibition [45] was 30%. The inhibition [46] was 73.6%, the inhibition [47] was 17.1% and the inhibition [48] was “Active”. For the same compound, the inhibition [49] was “Active”, the inhibition [50] was “Active” and the inhibition [51] was “Active”. The inhibition [52] was “Active”.
